In patent publication US11952361B1, “2-(1-(3-(dimethylamino)propyl)-4,5-diphenyl-1H-imidazol-2-yl) pyridin-3-ol as an antitumor and antimicrobial compound” (KING FAISAL UNIVERSITY, priority 2023, dated 2024):

Experiments:
[1] = system: human prostate cancer cells (PC3); assay: Cytotoxicity by SRB assay, PC3 cells; format: cell-based; settings: 0.01 μM to 100 μM, 72 h
Method: (§1) The human prostate cancer cells (PC3) and human osteosarcoma cells (MG-63) were obtained from Nawah Scientific Inc. (Mokatam, Cairo, Egypt) and cultured in DMEM (Dulbecco's modified eagle's medium), Gibco, USA, supplemented with fetal bovine serum (FBS) at a concentration of 10% and […]. of penicillin and streptomycin (PS). The Cells were incubated at 37° C. in a humidified environment that contained 5% CO2.
(§2) Cells were seeded in 96-well plates as aliquots of 100 μL cell suspension and incubated in a complete media for 24 h. afterward, cells were treated with 2-(1-(3-(Dimethylanino)propyl)-4,5-diphenyl-1H-imidazol-2-yl)pyridin-3-ol at diverse concentrations ranging from 0.01 μM to 100 μM for 72 h. Then, cells were fixed at 4° C. for one hour with 150 μL of 10% trichloroacetic acid (TCA). After washing the cells five times with distilled water, 70 μL of sulforhodamine (SRB) solution (0.4% w/v) was added and incubated for 10 min at room temperature in a dark place. […] Then, 150 μL of Tris pH 10.5 (10 mM) was added, and the absorbance was measured at 540 nm using a BMG LABTECH®-FiLJOstar Omega microplate reader (Ortenberg, Germany). Half maximal inhibitory concentrations (IC50) values were calculated for each experiment using GraphPad Prism 6 software. […]
(§3) The inhibition was calculated using the following equation: Inhibition %=100−Average Viability

[2] = system: human osteosarcoma cells (MG-63); assay: Cytotoxicity by SRB assay, MG-63 cells; format: cell-based; settings: 0.01 μM to 100 μM, 72 h
Method: as §1, §2, §3

melting point: 133 to 135 °C
SMILES: CN(C)CCCn1c(-c2ncccc2O)nc(-c2ccccc2)c1-c1ccccc1 [2-(1-(3-(Dimethylamino)propyl)-4,5-diphenyl-1H-imidazol-2-yl)pyridin-3-ol]
antiproliferative activity [1]: excellent antiproliferative activities
antiproliferative activity [2]: excellent antiproliferative activities
